Reference: BindingDB's records for patent US12552799 (Nxera Pharma, 2026)

Key:
Adenosine receptor A1 = target: T1, Adenosine receptor A1 (Homo sapiens, UniProt P30542); test: Adenosine Receptor Binding Assay
T1 sequence (P30542 whole entry): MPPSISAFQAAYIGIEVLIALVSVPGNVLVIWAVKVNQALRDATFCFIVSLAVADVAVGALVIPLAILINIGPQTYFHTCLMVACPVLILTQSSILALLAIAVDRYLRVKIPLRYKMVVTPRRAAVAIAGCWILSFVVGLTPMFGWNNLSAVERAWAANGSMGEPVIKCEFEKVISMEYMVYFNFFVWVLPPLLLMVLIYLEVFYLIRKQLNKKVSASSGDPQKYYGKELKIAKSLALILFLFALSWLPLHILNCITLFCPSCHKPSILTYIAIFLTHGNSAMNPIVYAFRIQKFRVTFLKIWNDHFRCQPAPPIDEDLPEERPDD
Description: (§1) Inhibition binding assays were performed using 0.2 μg of membranes prepared from […] cells infected with BacMam human adenosine A2A receptor or 1.4 μg of membranes […] receptor. Membranes were incubated in 50 mM Tris-HCl (HEK293-hA2A; pH 7.4) or 50 mM Tris-HCl, 100 mM NaCl, 10 mM MgCl2 (CHO-hA1; pH 7.4) in the presence of varying concentrations of test compound and 1 nM [3H]ZM241385 (HEK293-hA2A) or [3H]DPCPX (CHO-hA1) at 25° C. for 1 h. The assay was then terminated by rapid filtration onto GF/B grade Unifilter plates using a TomTec cell harvester, followed by 5×0.5 ml washes with ddH2O. Nonspecific binding was defined in the presence of 1 μM CGS15943 (HEK293-hA2A) or 1 μM DPCPX (CHO-hA1). Bound radioactivity was determined by liquid scintillation counting and inhibition curves were analysed using a four-parameter logistic equation.

Adenosine receptor A2a = Adenosine receptor A2a (Homo sapiens, UniProt P29274); test: Adenosine Receptor Binding Assay
Sequence of Adenosine receptor A2a (P29274 whole entry): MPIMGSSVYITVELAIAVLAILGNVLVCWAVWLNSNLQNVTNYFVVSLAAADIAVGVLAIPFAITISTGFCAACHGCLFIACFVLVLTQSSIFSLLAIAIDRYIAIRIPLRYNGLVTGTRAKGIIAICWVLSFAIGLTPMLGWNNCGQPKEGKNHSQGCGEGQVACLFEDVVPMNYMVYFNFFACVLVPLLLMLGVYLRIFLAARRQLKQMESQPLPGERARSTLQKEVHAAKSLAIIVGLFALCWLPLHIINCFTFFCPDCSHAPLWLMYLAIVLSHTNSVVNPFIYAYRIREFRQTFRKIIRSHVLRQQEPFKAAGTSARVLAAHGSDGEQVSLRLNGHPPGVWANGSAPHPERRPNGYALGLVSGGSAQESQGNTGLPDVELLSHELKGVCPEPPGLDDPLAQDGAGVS
Description: as §1

Row | Ki (Adenosine receptor A1) [nM] | Ki (Adenosine receptor A2a) [nM] | Compound
1 | > 3160 | 158 | C[C@@H]1CN(c2c(-c3ccccc3)nc(N)n3c(=O)n(CCCF)nc23)C[C@H](C)O1 [US12552799, Example 1-2]
2 | > 3160 | 63.1 | CCCn1nc2c(N3C[C@@H](C)O[C@@H](C)C3)c(-c3ccccc3)nc(N)n2c1=O [US12552799, Example 1-4]
3 | 2000 | 158 | C[C@@H]1CN(c2c(-c3ccccc3)nc(N)n3c(=O)n(C[C@@H]4CCCN4C)nc23)C[C@H](C)O1 [US12552799, Example 1-7]
4 | > 2000 | 10 | C[C@@H]1CN(c2c(-c3ccccc3)nc(N)n3c(=O)n(C[C@H]4CCCO4)nc23)C[C@H](C)O1 [US12552799, Example 1-8]
5 | 100 | 0.631 | Cc1cc(-c2c(-c3ccccc3)nc(N)n3c(=O)n(Cc4ccc(F)cn4)nc23)cc(C)c1O [US12552799, Example 3-1]
6 | 63.1 | 0.158 | Cc1cc(-c2c(-c3ccc(F)cc3)nc(N)n3c(=O)n(Cc4ccc(Cl)cn4)nc23)cc2ocnc12 [US12552799, Example 4-2]
7 | 25.1 | 0.251 | Cc1cc(-c2c(-c3ccccc3)nc(N)n3c(=O)n(Cc4ccc(F)cn4)nc23)cc2c1N=NC2 [US12552799, Example 4-4]
8 | 7.94 | 0.079 | Cc1ocnc1Cn1nc2c(-c3cc(C)c4ncoc4c3)c(-c3ccccc3)nc(N)n2c1=O [US12552799, Example 4-6]
